Laboratory results reported in paper PMC6980330 (Steroids, 2019).

Biological target: T1, vitamin D receptor (VDR) (Homo sapiens, UniProt P11473)
T1 sequence (P11473 118-427 limits assumed): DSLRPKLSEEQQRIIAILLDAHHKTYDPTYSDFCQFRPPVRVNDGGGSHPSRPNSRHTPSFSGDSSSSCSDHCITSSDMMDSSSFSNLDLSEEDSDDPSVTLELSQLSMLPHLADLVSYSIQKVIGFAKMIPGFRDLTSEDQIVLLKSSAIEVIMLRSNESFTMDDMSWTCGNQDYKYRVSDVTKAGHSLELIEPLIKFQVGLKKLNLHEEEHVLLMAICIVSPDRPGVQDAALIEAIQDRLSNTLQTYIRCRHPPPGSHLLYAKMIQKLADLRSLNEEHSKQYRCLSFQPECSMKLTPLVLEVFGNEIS
Assay type: binding

- IC50: 71.2 µM
Compound: C=C1CC[C@H](O)C/C1=C/C=C1\CCC[C@]2(C)[C@@H]([C@H](C)CC(=O)O)CC[C@@H]12 [compound 13, calcioic acid]
